From patent US10709678B2, “Methods of reducing risk of cardiovascular disease” (NEUROBO PHARMACEUTICALS, INC., priority 2012, dated 2020)
Like-named read-outs stand apart in the source and are kept apart here.

What was measured:
obese female Zucker rats = conditions: cited from earlier work
LDL-C [1] = conditions: monotherapy, ezetimibe 10 mg; cited from earlier work
[2] = test system: hypercholesterolemic patients; assay: 8-week double-blind placebo-controlled phase 2 study of gemcabene added to a stable statin dose: LDL-C; assay type: in vivo, human; conditions: on stable statin, placebo reduction 7.9%, p<0.01
Description: An 8-week, double-blind, placebo-controlled, randomized, multicenter, phase 2 study in hypercholesterolemic patients on a stable dose of statin (on statin therapy for at least the previous 3 months) was conducted to evaluate the efficacy of gemcabene in the further reduction of LDL-C in these patients.
A total of 66 hypercholesterolemic patients were treated in this study: 22 randomized to gemcabene 900 mg, 20 randomized to gemcabene 300 mg, and 24 randomized to placebo.
Patients included in the study were men and women ≥18 and ≤65 years of age with hypercholesterolemia and an LDL-C level at screening of ≥130 mg/dL while on a stable (3-months) dose of a statin. Patients were required to maintain their current dose of statin throughout the course of the study. […]
Percent change from base line was calculated as follows: Percent Change From Baseline=[(final value−baseline value)/baseline value]×100%. […]

[3] = test system: hypercholesterolemic patients; assay: Framingham Risk Score, baseline vs week 8, in the same phase 2 study; assay type: in vivo, human; conditions: 300 mg and 900 mg QD
Description: As used herein, references to 10-year risk are calculated using the Framingham point scores as provided in Tables 1 and 2, for men and women respectively. The patients' Framingham Risk Score was calculated at baseline. The Framingham risk score calculation takes into account: age, gender, systolic blood pressure level (+/−treatment), HDL cholesterol level, and smoker status. […] Significance was determined using the SAS Proc Univariate which provides p values from the student's paired t-test and the Wilcoxon Signed Rank test.

LDL-C [4] = conditions: cited from earlier work
LDL-C [5] = conditions: lovastatin 40 mg twice daily; cited from earlier work

CC(C)(CCCCCC(O)CCCCCC(C)(C)C(=O)O)C(=O)O [ESP 55016]
HDL-C (obese female Zucker rats): raising
non-HDL-C (obese female Zucker rats): effective in lowering
triglyceride levels (obese female Zucker rats): decreasing

O=C1[C@H](CC[C@H](O)c2ccc(F)cc2)[C@@H](c2ccc(O)cc2)N1c1ccc(F)cc1 [ezetimibe]
LDL-C lowered (LDL-C [1]): 16%

CC(C)(CCCCOCCCCC(C)(C)C(=O)O)C(=O)O [gemcabene, 6,6′-oxybis-(2,2′-dimethylhexanoic acid)]
LDL-C lowered from baseline at Week 8, median ([2]; 300 mg per day): 24.8%
LDL-C lowered from baseline at Week 8, median ([2]; 900 mg per day): 31.0%
Framingham Risk Score compared with statin treatment alone [3]: significantly reduced
decrease in LDL-C beyond atorvastatin monotherapy (LDL-C [4]; 300 mg gemcabene with atorvastatin (aggregated over 10, 40 and 80 mg)): 3.8%
decrease in LDL-C beyond atorvastatin monotherapy (LDL-C [4]; 600 mg gemcabene with atorvastatin (aggregated over 10, 40 and 80 mg)): 6.1%
decrease in LDL-C beyond atorvastatin monotherapy (LDL-C [4]; 900 mg gemcabene with atorvastatin (aggregated over 10, 40 and 80 mg)): 7.4%

CC[C@H](C)C(=O)O[C@H]1C[C@@H](C)C=C2C=C[C@H](C)[C@H](CC[C@@H]3C[C@@H](O)CC(=O)O3)[C@H]21 [lovastatin]
LDL-C lowered (LDL-C [5]): 35.5%
